Assay results: EP2924039A1, “2-Amino-1-phenyl-pyrrolo[3,2-b]quinoxaline-3-carboxamide derivates” (Universität Zürich, priority 2014, dated 2015)

Columns and labels:
HT-29 = experiment: Cell culture and GI50 determination (resazurin), HT-29; type: cell-based; conditions: Homo sapiens; HT-29, resazurin
Description: (§1) The old media was removed, the cells were washed with PBS (phosphate-buffered saline) and fresh media was added. […] Control cells were treated with the same DMSO concentrations. […] After 3 hours, the fluorescence was quantified using a fluorescence microplate reader (Biotek, FLx800™) at the respective excitation and emission wavelength of 560 and 590 nm. Resazurin becomes fluorescent under mitochondrial reduction and its emission directly correlates with the metabolic stability of the cells. […] All measurements were performed at least in triplicate (see table 1).

[1] = system: A498 (kidney cancer) cells; experiment: Cell culture and GI50 determination (resazurin), A-498; type: cell-based; conditions: Homo sapiens, A-498, 48h incubation
Description: (§2) Krek (Institute of Cell Biology, ETH Zurich) were cultured in Dulbelcco's modified Eagle's medium (DMEM) supplemented with 10% (v/v) fetal bovine serum. K562 leukemia cells obtained from Dr. Silvio Hemmi (Institute of Molecular Life Sciences, UZH) were cultured using RPMI medium supplemented with 5% (v/v) fetal bovine serum. All the media was additionally supplemented with 100 units/mL of penicillin, 100µg/mL of streptomycin, 4.5 g/L glucose, 0.11g/L sodium pyrubate and 2mM glutamine and the cells were grown at 37°C in 5% CO2 atmosphere with 80% relative humidity.
as §1

K-562 leukemia cells = experiment: Cell culture and GI50 determination (resazurin), K-562; type: cell-based; conditions: Homo sapiens, K562, K-562, 48 hour incubation
Description: as §2
After 24 hours, 12.5 µL of a 10 fold concentrated drug or DMSO solution in RMPI media was added in every well. After 48 hour incubation, cell viability was studied by measuring the ability of the cells to process resazurin.

[2] = system: MDA-MB-231 (breast cancer) cells; experiment: Cell culture and GI50 determination (resazurin), MDA-MB-231; type: cell-based; conditions: Homo sapiens, MDA-MB-231, 72 h
Description: as §2, §1

EphA3 = molecular target: T1, EphA3 (Homo sapiens, UniProt P29320); experiment: Differential Scanning Fluorimetry; type: binding; conditions: 2 µM EphA3, compound 20µM; read-out: Delta Tm
T1 construct: A clone of EphA3 kinase domain (residues: 606-947); made in house; host or cells: Escherichia coli BL21 (DE3)
T1 sequence (P29320 606-947): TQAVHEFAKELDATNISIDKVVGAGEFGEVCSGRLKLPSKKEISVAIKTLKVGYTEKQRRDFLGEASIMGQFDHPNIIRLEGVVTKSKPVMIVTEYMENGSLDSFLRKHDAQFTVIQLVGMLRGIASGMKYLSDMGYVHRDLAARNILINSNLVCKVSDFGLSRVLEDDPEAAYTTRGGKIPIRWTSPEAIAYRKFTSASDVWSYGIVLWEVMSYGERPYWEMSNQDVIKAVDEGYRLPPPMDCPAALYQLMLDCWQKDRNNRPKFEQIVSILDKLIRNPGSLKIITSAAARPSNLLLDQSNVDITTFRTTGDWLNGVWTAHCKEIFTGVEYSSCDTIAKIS
Description: Cell pellets were resuspended in buffer A (50mM Tris, pH 8.0 and 100mM NaCl, supplemented with protease inhibitors) and lysed by sonication. After centrifugation at 15,000 rpm for 1 h, the soluble fraction of EphA3 was purified using […] (GE healthcare), followed by gel filtration chromatography (Superdex75; GE healthcare). The appropriate fractions were combined and concentrated to ~10 mg/mL using Amicon filter devices (10kDa as cutoff) in a storage solution (100mM sodium chloride and 10mM Tris-HCl pH 8.0, 5% glycerol). The resulting solution was aliquoted and stored at -80°C for further usage.
A final volume of 40µL was added per well in a 96 well plate and incubated at room temperature for 1 h. The plates were centrifuged for 3 min at 450 rcf. The temperature gradient was performed in the range of 25°C-75°C (50 acquisitions per degree at a ramp rate of 4.4°C/s) using a LightCycler 480 Real-Time PCR System. […] All measurements were performed in triplicate.

[3] = system: KM12 (colon cancer) cells; experiment: Cell culture and GI50 determination (resazurin), KM12; type: cell-based; conditions: Homo sapiens
Description: as §2, §1

[4] = system: HOP-92 (lung cancer) cells; experiment: Cell culture and GI50 determination (resazurin), HOP-92; type: cell-based; conditions: Homo sapiens; HOP-92, resazurin
Description: as §2, §1

full-length human EphB4 = molecular target: T2, full-length human EphB4 (Homo sapiens, UniProt P54760); experiment: Cellular phosphorylation assay (sandwich ELISA, ProQinase); type: cell-based; conditions: mouse embryonic fibroblast cells overexpressing EphB4, stimulated with murine ephrinB2-Fc, read-out: cell IC50
T2 construct: stably transfected to overexpress full-length human EphB4; host or cells: Mouse embryonic fibroblast cells
T2 sequence (P54760 16-987): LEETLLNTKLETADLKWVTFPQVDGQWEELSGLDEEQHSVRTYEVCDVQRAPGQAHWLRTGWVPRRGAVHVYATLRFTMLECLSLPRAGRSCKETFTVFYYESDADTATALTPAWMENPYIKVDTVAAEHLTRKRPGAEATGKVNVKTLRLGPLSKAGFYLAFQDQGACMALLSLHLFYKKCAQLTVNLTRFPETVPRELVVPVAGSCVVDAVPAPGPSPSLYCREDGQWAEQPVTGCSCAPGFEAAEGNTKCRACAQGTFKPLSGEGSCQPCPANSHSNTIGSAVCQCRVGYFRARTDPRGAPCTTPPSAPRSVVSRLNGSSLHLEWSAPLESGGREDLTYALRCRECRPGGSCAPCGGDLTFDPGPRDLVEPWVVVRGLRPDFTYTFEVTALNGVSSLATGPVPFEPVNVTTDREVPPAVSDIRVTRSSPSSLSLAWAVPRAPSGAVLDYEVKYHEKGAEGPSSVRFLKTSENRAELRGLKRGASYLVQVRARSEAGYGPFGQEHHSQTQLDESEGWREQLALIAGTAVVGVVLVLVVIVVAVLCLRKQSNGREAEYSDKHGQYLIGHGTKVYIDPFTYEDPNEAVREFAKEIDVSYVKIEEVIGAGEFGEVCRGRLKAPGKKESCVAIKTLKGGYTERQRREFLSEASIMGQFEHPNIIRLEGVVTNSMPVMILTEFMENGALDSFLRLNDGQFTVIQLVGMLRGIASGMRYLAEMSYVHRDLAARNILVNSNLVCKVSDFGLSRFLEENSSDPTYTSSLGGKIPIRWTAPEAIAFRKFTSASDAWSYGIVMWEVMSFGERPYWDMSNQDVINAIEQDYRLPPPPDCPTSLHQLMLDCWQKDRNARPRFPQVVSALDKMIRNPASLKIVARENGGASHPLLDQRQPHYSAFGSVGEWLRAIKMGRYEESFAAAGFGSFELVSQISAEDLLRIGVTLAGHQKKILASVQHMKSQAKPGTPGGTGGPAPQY
Description: Cellular phosphorylation assays: The cellular phosphorylation experiments were performed at ProQinase GmbH. Mouse embryonic fibroblast cells, stably transfected to overexpress full-length human EphB4, were plated at 4×10^4 cells/well in DMEM supplemented with 10% FCS in 48-well culture dishes. Medium was replaced by DMEM without FCS before test compounds prediluted in 100% DMSO were added (final DMSO concentration of 1 %). After incubation for 90 min at 37 °C, cells were stimulated for 2 h at 4 °C using murine ephrinB2-Fc at a final concentration of 2 µg/ml. Quantification of EphB4 phosphorylation was assessed in a 96-well plate via sandwich ELISA using a myc capture antibody and an antiphosphotyrosine detection antibody. Table 4: Cell IC50 (µmol/l) in cells overexpressing EphB4

[5] = system: panel of 456 protein kinases; experiment: Selectivity profiling at DiscoveRx (KinomeScan); type: binding; conditions: 1 µM compound; for one or more of the protein kinases listed
Description: The selectivity profiling of compounds 10c, 10d, 10n and 10o were performed at DiscoveRx in a library of 456 kinases at a concentration of 1 µM. Briefly, kinases were mostly expressed as fusion proteins to […] and grown in 24-well blocks in E. Coli (derived from the BL21 strain). The rest of the kinases were expressed in HEK-293 cells and tagged with DNA for qPCR detection. Affinity resins were generated by mixing streptavidin-coated magnetic beads with biotinylated small molecule ligands for 30 minutes at 25 °C, followed by biotin and blocking buffer addition (SeaBlock (Pierce), 1 % BSA, 0.05 % Tween 20, 1 mM DTT). Inhibitors were kept at 40x stocks in 100% DMSO and added to the corresponding 384-well plates (40 µL). […] The kinase concentration present in the eluate was determined by qPCR. For further details, see Fabian, et. al., Nat. Biotechnol., 2005, 23 (3), 329-33.

SMILES	GI50 (HT-29) [nM]	GI50 [1] [nM]	GI50 (K-562 leukemia cells) [nM]	GI50 [2] [nM]	ΔTm at 20 µM (EphA3) [°C]	GI50 [3] [nM]	GI50 [4] [nM]	IC50 (full-length human EphB4) [nM]	control binding to the kinase in presence of the compound relative to control binding in absence of the compound [5]
NC(=O)c1c(N)n(-c2ccc(NC(=S)Nc3cccc(C(F)(F)F)c3)cc2)c2nc3ccccc3nc12 [Compound 10k, 2-amino-1-(4-(3-(3-(trifluoromethyl)phenyl)thioureido)phenyl)-1H-pyrrolo[2,3-b]quinoxaline-3-carboxamide]	16300	8730	5070	9630	9.9	2520	4250		
Cc1ccc(C(=O)Nc2cccc(C(F)(F)F)c2)cc1-n1c(N)c(C(N)=O)c2nc3ccccc3nc21 [Compound 10i]	2820	2070	36	1320	14.4	1570	1920		
Cc1cn(-c2cc(C(=O)Nc3ccc(C)c(-n4c(N)c(C(N)=O)c5nc6ccccc6nc54)c3)cc(C(F)(F)F)c2)cn1 [Compound 10m]	13400	4010	30	1930	15.8	2540	5120		
Cc1ccc(NC(=O)c2cccc(C(F)(F)F)c2)cc1-n1c(N)c(C(N)=O)c2nc3ccccc3nc21 [Compound 10g, 2-amino-1-(2-methyl-5-(3-(trifluoromethyl)benzamido)phenyl)-1H-pyrrolo[2,3-b]quinoxaline-3-carboxamide]	5870	2500	730	3880	12.3	800	4230		
NC(=O)c1c(N)n(-c2ccc(NC(=O)Nc3cccc(C(F)(F)F)c3)cc2)c2nc3ccccc3nc12 [Compound 10p, 2-amino-1-(4-(3-(3-(trifluoromethyl)phenyl)ureido)phenyl)-1H-pyrrolo[2,3-b]quinoxaline-3-carboxamide]	18000	10800	5450	10300		670	10000		
NC(=O)c1c(N)n(-c2cc(NC(=O)c3cccc(C(F)(F)F)c3)ccc2F)c2nc3ccccc3nc12 [Compound 10h, 2-amino-1-(2-fluoro-5-(3-(trifluoromethyl)benzamido)phenyl)-1H-pyrrolo[2,3-b]quinoxaline-3-carboxamide]	1800	1880	370	1440	10.9	2160	2060		
CC(C)(C)c1cc(NC(=O)Nc2ccc(-n3c(N)c(C(N)=O)c4nc5ccccc5nc43)cc2)n(-c2ccc3ncccc3c2)n1 [Compound 10n, 2-amino-1-(4-(3-(5-tert-butyl-2-quinolin-6-yl-2H-pyrazol)ureido)phenyl)-1H-pyrrolo[2,3-b]quinoxaline-3-carboxamide]	1250	730	3	210	19.3	150	450	1100	less than 10% of control
NC(=O)c1c(N)n(-c2cc(C(=O)Nc3cccc(C(F)(F)F)c3)ccc2F)c2nc3ccccc3nc12 [Compound 10j]	2970	2440	81	2690	13	1870	2120		
Cc1cn(-c2cc(NC(=O)c3ccc(C)c(-n4c(N)c(C(N)=O)c5nc6ccccc6nc54)c3)cc(C(F)(F)F)c2)cn1 [Compound 10l]	4360	5710	29	3050	16.2	2840	3010		
Cc1ccc(-n2nc(C(C)(C)C)cc2NC(=O)Nc2ccc(-n3c(N)c(C(N)=O)c4nc5ccccc5nc43)cc2)cc1 [Compound 10o]	780	1000	20	980	17.3	210	1480	370	less than 10% of control
